Earlier results in patent US20110015587A1, “Irrigation Device and Method Using Same” (priority 2009, published 2011).

Legend:
bacteria [1] = conditions: 2.6 ppm, 5 minutes
Escherichia coli = Escherichia coli exposed to hypochlorous acid
[2] = tested on: gram-negative and gram-positive bacteria, fungi and yeast including MRSA, Pseudomanas aeruginosa, VRE
bacteria [3] = conditions: very low concentrations
[4] = tested on: cellular components of wound healing

## OCl [Hypochlorous acid]
Bacteria [1]
  growth inhibition: 100%
Escherichia coli
  time to loss of viability: less than 100 ms

## Polyaminopropyl biguanide [PAPB]
Human cells
  toxicity to higher organisms such as human cells: very low toxicity
[2]
  activity against gram-negative and gram-positive bacteria, fungi and yeast: active
Bacteria [3]
  bactericidal concentration: 10 mg/L

## povidone-iodine
[4]
  cytotoxicity to the cellular components of wound healing: cytotoxic
